Data published in patent publication US9492471B2, “Methods of treating a disease or disorder associated with Bruton'S Tyrosine Kinase” (Celgene Avilomics Research, Inc., priority 2013, dated 2016).
Where two headings read alike, the source gives them in different places.

Columns and labels:
Assay in all cases: HotSpot kinase profiling
Type in all cases: biochemical
EPHA6 = target: T1, EPHA6 (Homo sapiens, UniProt Q9UF33)
T1 construct: purchased Reaction Biology Corp
T1 sequence (Q9UF33 23-1036): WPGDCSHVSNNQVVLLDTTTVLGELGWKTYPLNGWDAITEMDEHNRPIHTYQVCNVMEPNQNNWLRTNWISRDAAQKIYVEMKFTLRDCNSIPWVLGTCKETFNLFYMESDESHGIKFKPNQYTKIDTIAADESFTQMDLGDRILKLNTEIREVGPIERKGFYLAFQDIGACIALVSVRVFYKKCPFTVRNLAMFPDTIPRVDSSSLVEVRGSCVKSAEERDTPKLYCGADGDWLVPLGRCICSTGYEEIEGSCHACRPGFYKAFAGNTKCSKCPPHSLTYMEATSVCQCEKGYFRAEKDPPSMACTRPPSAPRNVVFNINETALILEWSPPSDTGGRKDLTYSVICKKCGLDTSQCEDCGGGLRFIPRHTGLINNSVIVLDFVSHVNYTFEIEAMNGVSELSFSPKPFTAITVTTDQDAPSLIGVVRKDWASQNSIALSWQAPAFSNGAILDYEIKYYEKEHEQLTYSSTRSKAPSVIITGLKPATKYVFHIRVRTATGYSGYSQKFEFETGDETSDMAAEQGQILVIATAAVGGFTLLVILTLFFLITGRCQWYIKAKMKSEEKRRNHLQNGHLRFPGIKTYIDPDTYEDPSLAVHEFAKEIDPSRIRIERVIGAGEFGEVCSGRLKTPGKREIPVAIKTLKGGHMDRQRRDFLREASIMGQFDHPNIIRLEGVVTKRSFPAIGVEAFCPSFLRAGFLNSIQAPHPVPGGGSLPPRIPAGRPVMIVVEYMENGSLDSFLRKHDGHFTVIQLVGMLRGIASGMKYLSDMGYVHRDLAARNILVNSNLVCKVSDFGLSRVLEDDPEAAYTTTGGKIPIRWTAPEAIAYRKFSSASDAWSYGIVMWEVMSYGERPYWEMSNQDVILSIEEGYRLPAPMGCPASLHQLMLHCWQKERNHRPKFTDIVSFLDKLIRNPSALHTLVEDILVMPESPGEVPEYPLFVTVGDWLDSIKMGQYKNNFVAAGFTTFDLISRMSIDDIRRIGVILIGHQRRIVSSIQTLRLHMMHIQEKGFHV
Summary of the method: (§1)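 Activity is measured by radiolabel transfer captured on P81 filters after a 2 h room-temperature reaction of kinase, substrate and cofactors. Values are percent inhibition against DMSO.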

CK1d = target: T2, CK1d (Homo sapiens, UniProt P48730)
T2 construct: purchased Reaction Biology Corp
T2 sequence (P48730 whole entry): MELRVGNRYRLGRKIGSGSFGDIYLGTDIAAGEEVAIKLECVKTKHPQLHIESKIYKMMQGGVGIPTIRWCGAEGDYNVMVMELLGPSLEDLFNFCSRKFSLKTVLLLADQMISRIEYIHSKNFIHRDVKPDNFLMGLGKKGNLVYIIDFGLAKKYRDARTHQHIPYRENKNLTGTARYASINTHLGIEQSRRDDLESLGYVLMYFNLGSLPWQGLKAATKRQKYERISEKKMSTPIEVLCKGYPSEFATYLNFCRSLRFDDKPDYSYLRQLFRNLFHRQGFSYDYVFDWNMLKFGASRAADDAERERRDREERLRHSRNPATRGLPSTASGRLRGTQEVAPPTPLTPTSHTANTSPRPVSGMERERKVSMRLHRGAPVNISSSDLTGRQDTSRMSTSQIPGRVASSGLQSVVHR
Summary of the method: as §1

MAPKAPK5/PRAK = target: T3, MAPKAPK5/PRAK (Homo sapiens, UniProt Q8IW41)
T3 construct: purchased Reaction Biology Corp
T3 sequence (Q8IW41 1-473): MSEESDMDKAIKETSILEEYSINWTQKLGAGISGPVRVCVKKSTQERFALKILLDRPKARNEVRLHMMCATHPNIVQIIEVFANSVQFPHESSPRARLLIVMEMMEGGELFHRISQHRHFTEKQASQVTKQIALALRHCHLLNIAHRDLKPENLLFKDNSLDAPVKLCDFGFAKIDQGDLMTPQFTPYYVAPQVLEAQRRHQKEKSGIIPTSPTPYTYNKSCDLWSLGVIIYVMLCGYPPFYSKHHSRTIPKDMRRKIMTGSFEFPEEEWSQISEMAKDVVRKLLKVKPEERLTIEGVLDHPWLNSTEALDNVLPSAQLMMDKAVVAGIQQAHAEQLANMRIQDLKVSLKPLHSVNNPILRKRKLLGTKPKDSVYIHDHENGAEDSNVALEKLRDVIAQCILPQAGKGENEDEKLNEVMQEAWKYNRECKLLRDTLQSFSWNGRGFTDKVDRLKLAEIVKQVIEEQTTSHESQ
Summary of the method: as §1

MEKK2 = target: T4, MEKK2 (Homo sapiens, UniProt Q9Y2U5)
T4 construct: purchased Reaction Biology Corp
T4 sequence (Q9Y2U5 1-619): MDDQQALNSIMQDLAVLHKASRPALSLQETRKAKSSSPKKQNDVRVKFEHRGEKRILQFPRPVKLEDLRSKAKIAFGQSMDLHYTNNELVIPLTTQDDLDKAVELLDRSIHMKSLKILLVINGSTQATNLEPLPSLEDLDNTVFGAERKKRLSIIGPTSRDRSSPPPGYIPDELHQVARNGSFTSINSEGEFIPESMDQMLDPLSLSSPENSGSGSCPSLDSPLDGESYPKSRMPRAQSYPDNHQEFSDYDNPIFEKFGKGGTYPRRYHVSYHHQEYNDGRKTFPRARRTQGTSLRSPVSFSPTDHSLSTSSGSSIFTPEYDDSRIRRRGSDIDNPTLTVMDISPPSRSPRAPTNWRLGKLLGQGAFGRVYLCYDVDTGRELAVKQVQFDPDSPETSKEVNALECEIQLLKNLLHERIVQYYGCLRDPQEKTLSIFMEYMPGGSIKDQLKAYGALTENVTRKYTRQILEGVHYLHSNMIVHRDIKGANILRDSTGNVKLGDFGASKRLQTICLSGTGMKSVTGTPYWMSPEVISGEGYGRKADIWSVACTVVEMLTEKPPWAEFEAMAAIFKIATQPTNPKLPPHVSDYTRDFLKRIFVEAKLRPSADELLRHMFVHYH
Summary of the method: as §1

CAMK1d = target: T5, CAMK1d (Homo sapiens, UniProt Q8IU85)
T5 construct: purchased Reaction Biology Corp
T5 sequence (Q8IU85 whole entry): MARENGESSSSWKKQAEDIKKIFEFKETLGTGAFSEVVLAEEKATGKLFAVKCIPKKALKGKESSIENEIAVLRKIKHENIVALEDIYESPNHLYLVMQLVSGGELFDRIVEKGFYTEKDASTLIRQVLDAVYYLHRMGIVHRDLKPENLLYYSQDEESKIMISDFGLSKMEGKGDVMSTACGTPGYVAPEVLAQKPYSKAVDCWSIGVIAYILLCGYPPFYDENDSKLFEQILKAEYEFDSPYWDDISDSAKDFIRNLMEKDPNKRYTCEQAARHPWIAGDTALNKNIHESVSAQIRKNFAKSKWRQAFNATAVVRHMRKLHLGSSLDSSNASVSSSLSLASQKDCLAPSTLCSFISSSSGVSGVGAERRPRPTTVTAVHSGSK
Summary of the method: as §1

[1] = read-out: % Enzyme Activity (relative to DMSO controls) Run 1
[2] = read-out: % Enzyme Activity (relative to DMSO controls) Run 2

`C=CC(=O)Nc1cccc(Nc2nc(Nc3ccc(OCCOC)c(F)c3)ncc2F)c1` [Compound 2] gave an inhibition at 3 µM (EPHA6) of 1.24%, a remaining activity at 3 µM (EPHA6; [1]) of 95.5% and a remaining activity at 3 µM (EPHA6; [2]) of 102%. For the same molecule, the inhibition at 3 µM (CK1d) was -0.03%, the remaining activity at 3 µM (CK1d; [1]) was 99.9% and the remaining activity at 3 µM (CK1d; [2]) was 100%. It also gave an inhibition at 3 µM (MAPKAPK5/PRAK) of -11.6%, a remaining activity at 3 µM (MAPKAPK5/PRAK; [1]) of 110% and a remaining activity at 3 µM (MAPKAPK5/PRAK; [2]) of 113%. For the same molecule, the inhibition at 3 µM (MEKK2) was -10.9%, the remaining activity at 3 µM (MEKK2; [1]) was 108% and the remaining activity at 3 µM (MEKK2; [2]) was 114%. The inhibition at 3 µM (CAMK1d) was -3.36%, the remaining activity at 3 µM (CAMK1d; [1]) was 104% and the remaining activity at 3 µM (CAMK1d; [2]) was 103%.
